Reference: patent publication US20230085307A1, “PYRIDAZINONE COMPOUND AND HERBICIDE” (NISSAN CHEMICAL CORPORATION, priority 2019, published 2023)

Legend:
[1] = system: Italian ryegrass; assay: Test Example 4: herbicidal effect by soil treatment (Table 19, symbol K); format: in vivo, Italian ryegrass (Lolium multiflorum); settings: amount of applied herbicide 320 g/ha
Method in brief: (§1)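 Seeds were sown in sterilized diluvial soil and covered with about 1.5 cm of soil. An emulsion formulation diluted with water to a predetermined herbicide amount was sprayed evenly onto the soil surface. Plants grew in a greenhouse at 25° C. to 30° C., and the effect was scored three weeks after application using criteria from an earlier test.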

[2] = system: persian speedwell; assay: Test Example 5: herbicidal effect by foliage application, plastic box (Table 20, symbol R); format: in vivo, Persian speedwell (Veronica persica); settings: foliage application, 320 g/ha, evaluated three weeks after application
Method in brief: (§2)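 Plants sown in sterilized diluvial soil and grown 14 days in a greenhouse at 25° C to 30° C, then sprayed on the foliage with the compound's emulsion diluted in water to a predetermined herbicide amount. Injury to weeds and crops scored three weeks after application on a visual rating scale.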

[3] = system: chickweed; assay: Test Example 4: herbicidal effect by soil treatment (Table 19, symbol P); format: in vivo, common chickweed (Stellaria media); settings: amount of applied herbicide 320 g/ha
Method in brief: as §1

[4] = system: windgrass; assay: Test Example 4: herbicidal effect by soil treatment (Table 19, symbol L); format: in vivo, windgrass (Apera spica-venti); settings: amount of applied herbicide 320 g/ha
Method in brief: as §1

[5] = system: barnyard grass; assay: Test Example 3: herbicidal effect by foliage application, Wagner pot (Table 18, symbol H); format: in vivo, barnyard grass (Echinochloa crus-galli); settings: amount of applied herbicide 320 g/ha
Method in brief: (§3)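 Plants were sown in alluvial soil held under 0.1–0.5 cm standing water and grown 14 days in a greenhouse at 25–30 °C. An emulsifiable formulation, water-diluted to the set dose, was then sprayed onto the foliage, and effects were scored three weeks later using previously defined criteria.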

[6] = system: blackgrass; assay: Test Example 5: herbicidal effect by foliage application, plastic box (Table 20, symbol J); format: in vivo, blackgrass (Alopecurus myosuroides); settings: foliage application, 320 g/ha, evaluated three weeks after application
Method in brief: as §2

[7] = system: false cleavers; assay: Test Example 4: herbicidal effect by soil treatment (Table 19, symbol Q); format: in vivo, false cleavers (Galium spurium); settings: amount of applied herbicide 320 g/ha
Method in brief: as §1

[8] = system: velvetleaf; assay: Test Example 4: herbicidal effect by soil treatment (Table 19, symbol M); format: in vivo, velvetleaf (Abutilon theophrasti); settings: amount of applied herbicide 320 g/ha
Method in brief: as §1

[9] = system: chickweed; assay: Test Example 5: herbicidal effect by foliage application, plastic box (Table 20, symbol P); format: in vivo, common chickweed (Stellaria media); settings: foliage application, 320 g/ha, evaluated three weeks after application
Method in brief: as §2

[10] = system: southern crabgrass; assay: Test Example 5: herbicidal effect by foliage application, plastic box (Table 20, symbol F); format: in vivo, southern crabgrass (Digitaria ciliaris); settings: foliage application, 320 g/ha, evaluated three weeks after application
Method in brief: as §2

[11] = system: southern crabgrass; assay: Test Example 4: herbicidal effect by soil treatment (Table 19, symbol F); format: in vivo, southern crabgrass (Digitaria ciliaris); settings: amount of applied herbicide 320 g/ha
Method in brief: as §1

[12] = system: late watergrass; assay: Test Example 1: herbicidal activity, application before weed generation under submerged conditions (Table 16, symbol A); format: in vivo, late watergrass (Echinochloa oryzicola); settings: 320 g/ha applied herbicide
Method in brief: (§4)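 Submerged Wagner pots (alluvial soil, 4 cm water) sown with weed seeds and planted with 2.5-leaf rice seedlings; emulsifiable concentrate diluted in water applied to water surface on sowing day. Held in greenhouse at 25-30 °C; injury scored 0-5 by herbicidal rate after three weeks.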

[13] = system: blackgrass; assay: Test Example 4: herbicidal effect by soil treatment (Table 19, symbol J); format: in vivo, blackgrass (Alopecurus myosuroides); settings: amount of applied herbicide 320 g/ha
Method in brief: as §1

[14] = system: oval-leafed pondweed; assay: Test Example 1: herbicidal activity, application before weed generation under submerged conditions (Table 16, symbol C); format: in vivo, oval-leafed pondweed (Monochoria vaginalis); settings: 320 g/ha applied herbicide
Method in brief: as §4

[15] = system: green foxtail; assay: Test Example 4: herbicidal effect by soil treatment (Table 19, symbol G); format: in vivo, green foxtail (Setaria viridis); settings: amount of applied herbicide 320 g/ha
Method in brief: as §1

[16] = system: Japanese bulrush; assay: Test Example 1: herbicidal activity, application before weed generation under submerged conditions (Table 16, symbol B); format: in vivo, Japanese bulrush (Schoenoplectus juncoides); settings: 320 g/ha applied herbicide
Method in brief: as §4

[17] = system: velvetleaf; assay: Test Example 5: herbicidal effect by foliage application, plastic box (Table 20, symbol M); format: in vivo, velvetleaf (Abutilon theophrasti); settings: foliage application, 320 g/ha, evaluated three weeks after application
Method in brief: as §2

[18] = system: lambsquarters; assay: Test Example 5: herbicidal effect by foliage application, plastic box (Table 20, symbol O); format: in vivo, lambsquarters (Chenopodium album); settings: foliage application, 320 g/ha, evaluated three weeks after application
Method in brief: as §2

[19] = system: Chinese sprangletop; assay: Test Example 3: herbicidal effect by foliage application, Wagner pot (Table 18, symbol D); format: in vivo, chinese sprangletop (Leptochloa chinensis); settings: amount of applied herbicide 320 g/ha
Method in brief: as §3

[20] = system: barnyard grass; assay: Test Example 4: herbicidal effect by soil treatment (Table 19, symbol H); format: in vivo, barnyard grass (Echinochloa crus-galli); settings: amount of applied herbicide 320 g/ha
Method in brief: as §1

[21] = system: redroot pigweed; assay: Test Example 4: herbicidal effect by soil treatment (Table 19, symbol N); format: in vivo, redroot pigweed (Amaranthus retroflexus); settings: amount of applied herbicide 320 g/ha
Method in brief: as §1

[22] = system: green foxtail; assay: Test Example 5: herbicidal effect by foliage application, plastic box (Table 20, symbol G); format: in vivo, green foxtail (Setaria viridis); settings: foliage application, 320 g/ha, evaluated three weeks after application
Method in brief: as §2

[23] = system: persian speedwell; assay: Test Example 4: herbicidal effect by soil treatment (Table 19, symbol R); format: in vivo, Persian speedwell (Veronica persica); settings: amount of applied herbicide 320 g/ha
Method in brief: as §1

[24] = system: redroot pigweed; assay: Test Example 5: herbicidal effect by foliage application, plastic box (Table 20, symbol N); format: in vivo, redroot pigweed (Amaranthus retroflexus); settings: foliage application, 320 g/ha, evaluated three weeks after application
Method in brief: as §2

[25] = system: windgrass; assay: Test Example 5: herbicidal effect by foliage application, plastic box (Table 20, symbol L); format: in vivo, windgrass (Apera spica-venti); settings: foliage application, 320 g/ha, evaluated three weeks after application
Method in brief: as §2

[26] = system: wild oat; assay: Test Example 4: herbicidal effect by soil treatment (Table 19, symbol I); format: in vivo, wild oat (Avena fatua); settings: amount of applied herbicide 320 g/ha
Method in brief: as §1

[27] = system: lambsquarters; assay: Test Example 4: herbicidal effect by soil treatment (Table 19, symbol O); format: in vivo, lambsquarters (Chenopodium album); settings: amount of applied herbicide 320 g/ha
Method in brief: as §1

[28] = system: wild oat; assay: Test Example 5: herbicidal effect by foliage application, plastic box (Table 20, symbol I); format: in vivo, wild oat (Avena fatua); settings: foliage application, 320 g/ha, evaluated three weeks after application
Method in brief: as §2

[29] = system: barnyard grass; assay: Test Example 5: herbicidal effect by foliage application, plastic box (Table 20, symbol H); format: in vivo, barnyard grass (Echinochloa crus-galli); settings: foliage application, 320 g/ha, evaluated three weeks after application
Method in brief: as §2

[30] = system: rice flat sedge; assay: Test Example 3: herbicidal effect by foliage application, Wagner pot (Table 18, symbol E); format: in vivo, rice flat sedge (Cyperus iria); settings: amount of applied herbicide 320 g/ha
Method in brief: as §3

[31] = system: Italian ryegrass; assay: Test Example 5: herbicidal effect by foliage application, plastic box (Table 20, symbol K); format: in vivo, Italian ryegrass (Lolium multiflorum); settings: foliage application, 320 g/ha, evaluated three weeks after application
Method in brief: as §2

CCCCOc1cccc(-c2sc3ccc(F)cc3c2-c2c(O)c(C)nn(C)c2=O)c1 [2-219]
K: Italian ryegrass, herbicidal effect rating [1]: 0 (Herbicidal rate of 5% or less (almost no effect))
herbicidal effect on R: persian speedwell (criteria 0-5) [2]: 5 (Herbicidal rate of 90% or more (almost completely withered))
P: chickweed, herbicidal effect rating [3]: 0 (Herbicidal rate of 5% or less (almost no effect))
L: windgrass, herbicidal effect rating [4]: 0 (Herbicidal rate of 5% or less (almost no effect))
herbicidal effect on H: barnyard grass [5]: 5 (Herbicidal rate of 90% or more (almost completely withered))
herbicidal effect on J: blackgrass (criteria 0-5) [6]: 0 (Herbicidal rate of 5% or less (almost no effect))
Q: false cleavers, herbicidal effect rating [7]: 0 (Herbicidal rate of 5% or less (almost no effect))
M: velvetleaf, herbicidal effect rating [8]: 1 (Herbicidal rate of 5% or more and less than 20%)
herbicidal effect on P: chickweed (criteria 0-5) [9]: 5 (Herbicidal rate of 90% or more (almost completely withered))
herbicidal effect on F: southern crabgrass (criteria 0-5) [10]: 4 (Herbicidal rate of 70% or more and less than 90%)
F: southern crabgrass, herbicidal effect rating [11]: 4 (Herbicidal rate of 70% or more and less than 90%)
Herbicidal effect on A: late watergrass (grade 0-5) [12]: 3 (Herbicidal rate of 40% or more and less than 70%)
J: blackgrass, herbicidal effect rating [13]: 0 (Herbicidal rate of 5% or less (almost no effect))
Herbicidal effect on C: oval-leafed pondweed (grade 0-5) [14]: 0 (Herbicidal rate of 5% or less (almost no effect))
G: green foxtail, herbicidal effect rating [15]: 4 (Herbicidal rate of 70% or more and less than 90%)
Herbicidal effect on B: Japanese bulrush (grade 0-5) [16]: 0 (Herbicidal rate of 5% or less (almost no effect))
herbicidal effect on M: velvetleaf (criteria 0-5) [17]: 2 (Herbicidal rate of 20% or more and less than 40%)
herbicidal effect on O: lambsquarters (criteria 0-5) [18]: 3 (Herbicidal rate of 40% or more and less than 70%)
herbicidal effect on D: Chinese sprangletop [19]: 3 (Herbicidal rate of 40% or more and less than 70%)
H: barnyard grass, herbicidal effect rating [20]: 5 (Herbicidal rate of 90% or more (almost completely withered))
N: redroot pigweed, herbicidal effect rating [21]: 3 (Herbicidal rate of 40% or more and less than 70%)
herbicidal effect on G: green foxtail (criteria 0-5) [22]: 5 (Herbicidal rate of 90% or more (almost completely withered))
R: persian speedwell, herbicidal effect rating [23]: 3 (Herbicidal rate of 40% or more and less than 70%)
herbicidal effect on N: redroot pigweed (criteria 0-5) [24]: 5 (Herbicidal rate of 90% or more (almost completely withered))
herbicidal effect on L: windgrass (criteria 0-5) [25]: 0 (Herbicidal rate of 5% or less (almost no effect))
I: wild oat, herbicidal effect rating [26]: 0 (Herbicidal rate of 5% or less (almost no effect))
O: lambsquarters, herbicidal effect rating [27]: 1 (Herbicidal rate of 5% or more and less than 20%)
herbicidal effect on I: wild oat (criteria 0-5) [28]: 0 (Herbicidal rate of 5% or less (almost no effect))
herbicidal effect on H: barnyard grass (criteria 0-5) [29]: 4 (Herbicidal rate of 70% or more and less than 90%)
herbicidal effect on E: rice flat sedge [30]: 3 (Herbicidal rate of 40% or more and less than 70%)
herbicidal effect on K: Italian ryegrass (criteria 0-5) [31]: 0 (Herbicidal rate of 5% or less (almost no effect))
